Experimental data: PMC3510080, “Identification of Compounds with Anti-Proliferative Activity against Trypanosoma brucei brucei Strain 427 by a Whole Cell Viability Based HTS Campaign” (PLoS Neglected Tropical Diseases, 2012)
Read-outs that look alike come from different tables or passages of the source.

Legend:
[1] = system: T.b. brucei bloodstream form lister 427; assay: T.b. brucei Alamar Blue viability estimation assay (384-well HTS, retest and rescreen); assay type: cell-based, Trypanosoma brucei brucei; details: for IC50: Trypanosoma brucei
Method: (§1) T.b. brucei lister 427 cells were maintained in log phase growth in 25 cm^2 tissue culture flasks (Corning, NY, USA) by sub-culturing at either 24 or 48 hour intervals. Cells were grown in HMI-9 medium, supplemented with 10% fetal calf serum (FCS) and 100 IU/ml penicillin/streptomycin (Invitrogen, Carlsbad, California, USA) with incubation at 5% CO2 at 37°C in humidified conditions. HEK293 cells were maintained in high glucose DMEM with L-glutamine, supplemented with 1× non-essential amino acids (NEAA; Invitrogen, USA) and 1 mM sodium pyruvate. Growth conditions were in 5% CO2 at 37°C, under humidified conditions.
All reagent and cell additions were made with a Multidrop liquid handler (Thermo Scientific, Newington, NH, USA) under sterile conditions. Fifty-five microliters of 2000 cells/mL of T.b. brucei in HMI-9 medium were added to a black, clear-bottomed 384-well lidded plate (BD Biosciences, Franklin Lanes, NJ, USA). Cells were incubated for 24 hours at 37°C in an atmosphere of 5% CO2 before addition of 5 µl of compounds/DMSO for control wells. Compounds suspended in 100% DMSO or 100% DMSO as controls were pre-diluted 1∶21 in high glucose DMEM without FCS by using a Minitrack robotic liquid handler (PerkinElmer, Waltham, MA, USA). Five microliters of diluted sample was added to the plate to give a final DMSO concentration of 0.417% in the assay. Cells were incubated for an additional 48 hours at 37°C. Ten microliters of 70% Alamar Blue (Biosource, Bethesda, MD, USA) was added to each well (diluted in HMI-9 medium supplemented with 10% FCS) to a final concentration of 10% in the assay. The plate was incubated for two hours under the same conditions, then incubated for 22 hours in the dark at room temperature. Wells were read at 535 nm (excitation) and 590 nm (emission) wavelengths on a Victor II Wallac plate reader (PerkinElmer, USA). Specific dilutions are explained further in the primary and retest assay methodology. Reference drugs used in the assay were pentamidine (Sigma-Aldrich, St Louis, MO, USA), diminazene aceturate (Sigma-Aldrich, USA) and puromycin (Calbiochem, San Deigo, CA, USA). Pentamidine is used to treat patients with HAT and diminazene is a veterinary drug used against T.b. brucei to combat infections in cattle.
Primary screening of the library, consisting of 87,296 compounds in two hundred and forty eight 384-well plates, was undertaken in single point against T.b. brucei. Stock solutions consisted of test compound at a concentration of 5 mM in 100% DMSO. One µl of each compound stock solution was diluted by the addition of 40 µl of dilution medium (high glucose DMEM without FCS) by a multidrop liquid handler (Thermo Scientific, USA). A 5 µl sample of this diluted solution was then added to the trypanosome assay plate. The final concentration of test compound in the assay was […] and that of DMSO was 0.42% v/v. Compounds were screened over a total of 11 days, at an average of 80 plates per day, taking into consideration that the assay incubation was 3 days total. Test compounds were added to plates in batches of 20 at two hour intervals, to maintain the timing of additions and reads.
Compound activity was calculated as the percentage inhibition in relation to positive and negative controls. […] These in-plate negative controls were used in an effort to normalise compound activity in relation to any plate to plate variation in the assay signal. A whole 384-well control plate was included in each day's screening, one per 20 compound plates containing half a plate of 2 µM pentamidine for the positive assay control, and half a plate of 0.42% v/v DMSO as a negative control. The positive assay control was used to calculate compound activity for batches of 20 compound plates. As well providing the positive control data, these whole plate controls were used for the calculation of the Z' to measure the reproducibility of the assay.

[2] = system: HEK293 cells; assay: HEK293 Alamar Blue viability estimation assay; assay type: cell-based, human; details: pentamidine 1 µM, diminazene 40 µM
Method: as §1
Cells at 80% confluence were harvested and diluted in growth medium (high glucose DMEM supplemented with 10% FCS) to 7.27×10^4 cells/ml. Under sterile conditions, 55 µl of diluted cells per well were added to a black, clear bottomed 384-well lidded plate (BD Biosciences, Bedford, MA, USA) with a Multidrop liquid handler (Thermo Scientific, Barrington, IL, USA). Incubation times, compound additions and plate read were as per the trypanosome viability assay, with the exception that Alamar Blue was diluted in HEK293 growth media before addition, and incubation of Alamar Blue at 37°C, in 5% CO2, was for 4 hours, followed by incubation at room temperature for 20 hours. The activity of compounds against HEK293 cells was used to calculate the SI of mammalian to T.b. brucei cells. The control compound for HEK293 cells was puromycin (Calbiochem, USA).
Compounds identified from primary screening were retested against both T.b. brucei and HEK293 cells in duplicate and at varying concentrations to obtain a dose-response curve. Thus, a 5 µl sample of fresh compound stock solution (5 mM in DMSO) was cherry picked into 384-well plates and diluted 1∶10 in dilution medium (high glucose DMEM without FCS). Serial dilutions of these samples were then prepared in the same media by a Minitrak robotic liquid handler (Perkin Elmer, USA). […] A screening dose of 10.4 µM was included in the dilution series to enable reconfirmation of primary screening T.b. brucei activity.
The DMSO working concentration in the serial dilutions was maintained at 5%, giving a final assay concentration of 0.42% DMSO, except for the 41.7 µM test compound solution, where as previously stated the corresponding DMSO concentration was 0.83% v/v. […] Therefore the 41.7 µM test compound sample with 0.83% v/v DMSO was not used in the T.b. brucei assay and thus the top test compound concentration in this assay was 20.8 µM.
Compound activity in the retest campaign was calculated as percentage inhibition in relation to positive and negative controls, in the same manner as the primary screening campaign. The positive controls, pentamidine (2 µM final concentration) for T.b. brucei and puromycin (8 µM final concentration) for HEK293, were both screened in whole 384-well control plates. Whole 384-well plate controls were included after every batch of 20 compound plates, and were comprised of half a plate of negative control and half a plate of positive control. The negative control was the vehicle, […]. The negative control was also included in column 24 of each compound assay plate to determine signal variation from plate to plate and to calculate compound activity. The exception was the 41.7 µM compound dose used in the HEK293 assay. In these plates column 24 contained 0.83% DMSO as a negative control. A separate 384-well plate containing a 13 point dose-response of the reference compounds puromycin, pentamidine and diminazene, in triplicate, was also included per 20 compound test plate batch to estimate assay sensitivity.
These compounds were retested as in dose for N of three replicates, as described above for both T.b. brucei and HEK293.

[3] = system: mammalian cell lines; details: cited from earlier work

For `N=C(N)c1ccc(/N=N/Nc2ccc(C(=N)N)cc2)cc1` [Diminazene, diminazene aceturate, reference compound], the “Selectivity Index T.B” value ([1]; HEK293 IC50 / T.b. brucei IC50, > if less than 50% activity at 75.8 µM in HEK293) was greater than 330, the IC50 ([1]; 13 control plates, triplicate dose-response, read-out: IC50 of reference compounds, primary screening campaign) was 65.4 nM and the IC50 ([1]; during rescreening of resynthesized compounds, read-out: Reference Compound Activity T.B (IC50)) was 121 ± 9.04 nM. The IC50 ([1]; reference compounds, read-out: IC50 against T.b. brucei, retest screening campaign) was 29.5 ± 5.8 nM, the “activity in the HEK293 assay at the doses screened, rescreening” value [2] was “neither pentamidine nor diminazene displayed activity” and the “activity in the HEK293 assay at the doses screened, retest campaign” value [2] was “Neither pentamidine nor diminazene displayed activity”. The “reported SI” value [3] was 692.
